The values that follow are results of earlier work, collected in patent EP0116853A1, “Pyridazinones, processes for preparing them, therapeutical compositions containing these compounds and their use” (BASF Aktiengesellschaft, priority 1983, dated 1984).

The conditions of the data set: in contrast to the corresponding 4,5-dihydro compound.

With `CC(=O)Nc1ccc(-c2n[nH]c(=O)cc2C)cc1` [6-(p-Acetylamino-phenyl)-5-methyl-3(2H)-pyridazinon], the “blutdrucksenkende Wirkung” value is recorded as “keine blutdrucksenkende Wirkung”.
